Laboratory results taken from PMC8406801, “Naringenin Inhibits Platelet Activation and Arterial Thrombosis Through Inhibition of Phosphoinositide 3-Kinase and Cyclic Nucleotide Signaling” (Frontiers in Pharmacology, 2021).
“And” between values parts separate entries of the source, which are not always exact repeats. Equal values may be shown once. Read-outs that look alike come from different tables or passages of the source.

Legend:
washed rat platelets = test: ADP (5 μM)-stimulated aggregation of washed platelets (Figure S1); assay type: cell-based; details: 200, 400 and 800 μM similar efficacy
Source text: Platelet aggregation was induced by ADP using washed platelets and PRP. […]
(1 picture or pasted object on this page, not shown here)

[1] = Cytotoxicity: LDH leakage from platelets; assay type: cell-based; details: rat
Description: To assess the potential cytotoxicity of naringenin, lactate dehydrogenase (LDH) leakage from platelets were determined. Washed platelets were preincubated with either various concentrations of naringenin or vehicle at 37°C for 5 min and then centrifuged at 350 × g for 3 min at room temperature. The supernatant was detected by LDH assay kit (Beyotime Biotechnology, Shanghai, China). LDH leakage was expressed as percentages of the total LDH leakage in platelets completely lysed with 0.1% Triton X-100.

[2] = tested on: Akt Thr308 phosphorylation; test: Immunoblotting of phospho-Akt (Thr308) in ADP-stimulated washed platelets; assay type: cell-based, rat; details: ADP 10 μmol/L, single replicates; for p-Akt Thr308 / t-Akt: raw data
Description: (§1) For in vitro platelet aggregation, aliquots of washed platelets were preincubated with vehicle or various concentrations of naringenin for 5 min and stimulated with ADP (10 μmol/L) under stirring at 37°C for 5 min. For ex vivo platelet aggregation, PRP was incubated at 37°C for 5 min and stimulated with ADP (5 μmol/L) under stirring at 37 °C. The platelet aggregation was terminated by adding ethylenediaminetetraacetic acid (EDTA; 10 mM). Total protein was prepared using RIPA lysis buffer and protein content was determined by bicinchoninic acid (BCA) protein assay kit. Equal amounts of platelet proteins (30 μg) were separated on 10% SDS polyacrylamide gel electrophoresis (SDS-PAGE) and then transferred to poly vinylidene difluoride (PVDF) membranes and subjected to western blot. Blots were blocked with TBS-Tween 20 containing 5% BSA and probed with primary antibodies diluted in blocking solution at 4°C overnight followed by incubation with the corresponding HRP secondary antibodies. The protein bands were visualized using enhanced chemiluminescence (ECL).
(§2) FIGURE 4 Naringenin inhibits PI3K-mediated signaling in ADP-induced platelets. Washed rat platelets were preincubated without or with naringenin at 37°C for 5 min, and then stimulated with ADP (10 μmol/L) under stirring for 5 min. Platelet proteins were then extracted and analyzed by immunoblotting using PI3Kp110β antibody (A) and phospho-specific antibodies such as Akt^Ser473 (B), Akt^Thr308 (C), ERK1/2^Thr202/Tyr204 (D) and GSK3β^Ser9 (E). Total level of GAPDH was measured on each sample as a loading control. The blots shown are representative of three separate experiments. The relative protein expression levels were quantified by ImageJ 1.47v software. The level of relative protein expression obtained with vehicle control (0 μM) was taken as 1. R represents the level of relative protein expression in resting platelets. Data are expressed as means ± SD (n = 3). *p < 0.05, **p < 0.01, ***p < 0.001 compared with the vehicle control group.

[3] = tested on: GSK3β Ser9 phosphorylation; test: Immunoblotting of phospho-GSK3β (Ser9) in ADP-stimulated washed platelets; assay type: cell-based, rat; details: for p-GSK3β / t-GSK3β / p-GSK3β / t-GSK3β (Fold to ADP only): ADP 10 μmol/L, single replicates; for p-GSK3β / t-GSK3β: raw data
Description: as §1, §2

PI3Kp110β = test: Ex vivo immunoblotting of PI3Kp110β in ADP-stimulated PRP of treated rats; design: species or system rat; details: for PI3Kp110β / GAPDH (Fold to Control) / PI3Kp110β / GAPDH (raw data): ex vivo, Figure 8B
Description: (§3) Male SD rats were randomly divided into 5 groups with 6 rats in each group. […] Sixty minutes after the last sample treatment, blood was drawn from the abdominal aorta of rats into the siliconized vacutainers containing 1:9 (v/v) 3.8% sodium citrate. The collected blood was centrifuged at 100 × g for 10 min at room temperature to obtain PRP. […] The platelet counts of PRP were adjusted to 4×10^8 cells/mL using PPP. PRP was incubated for 5 min at 37°C and then stimulated by ADP (5 μM). The maximum platelet aggregation rate was determined as mentioned above.
as §1
(§4) Blood was collected and PRP was obtained after the last treatment. Platelet aggregation was induced by ADP (5 μmol/L) (A). Data are expressed as means ± SD (n = 6). After ADP stimulation, platelet proteins were then extracted and analyzed by immunoblotting using PI3Kp110β antibody (B) and phospho-specific antibodies such as Akt^Ser473 (C), Akt^Thr308 (D) and ERK1/2^Thr202/Tyr204 (E). Total level of GAPDH was measured on each sample as a loading control. The blots shown are representative of three separate experiments. The relative protein expression levels were quantified by ImageJ 1.47v software. The level of relative protein expression obtained with vehicle control was taken as 1. R represents the level of relative protein expression in resting platelets. Data are expressed as means ± SD (n = 3). *p < 0.05, **p < 0.01, ***p < 0.001 compared with the vehicle control group (Con).
(§5) To further investigate the antiplatelet mechanisms of naringenin ex vivo, several signaling molecules such as PI3Kp110β, Akt and ERK were detected. After oral administration of naringenin (200, 400, and 800 mg/kg) to rats for 7 days, rat PRP was prepared and stimulated by ADP (5 μmol/L), and platelets were lysed to determine protein phosphorylation levels using western blot.

[4] = tested on: Akt Ser473 phosphorylation; test: Ex vivo immunoblotting of phospho-Akt (Ser473) in ADP-stimulated PRP of treated rats; design: species or system rat; details: for p-Akt Ser473 / t-Akt (Fold to Control) / p-Akt Ser473 / t-Akt (raw data): ex vivo, Figure 8C
Description: as §3, §1, §4, §5

[5] = tested on: Akt Thr308 phosphorylation; test: Ex vivo immunoblotting of phospho-Akt (Thr308) in ADP-stimulated PRP of treated rats; design: species or system rat; details: for p-Akt Thr308 / t-Akt (Fold to Control) / p-Akt Thr308 / t-Akt (raw data): ex vivo, Figure 8D
Description: as §3, §1, §4, §5

[6] = rats, oral 200, 400, and 800 mg/kg for 7 days, ADP 5 μmol/L

In the case of O=C1C[C@@H](c2ccc(O)cc2)Oc2cc(O)cc(O)c21 [Naringenin], the “effect on ADP (5 μM)-stimulated platelet aggregation” value (washed rat platelets) is reported as “significant levels of inhibition”, the cytotoxicity at 5 min, 100 µM ([1]; Cytotoxicity (%)) is reported as 0.99 ± 0.21% and the cytotoxicity at 5 min, 200 µM ([1]; Cytotoxicity (%)) is reported as 1.16 ± 0.39%. For the same molecule, the cytotoxicity at 5 min, 400 μM ([1]; Cytotoxicity (%)) was 2.11 ± 0.81%, the cytotoxicity at 5 min, 800 μM ([1]; Cytotoxicity (%)) was 2.5 ± 0.85% and the cytotoxicity at 5 min, 400 μM ([1]; washed platelets, naringenin 400 μM, LDH leakage, Table 1, read-out: Cytotoxicity (%)) was 1.94%. The cytotoxicity at 5 min, 800 μM ([1]; washed platelets, naringenin 800 μM, LDH leakage, Table 1, read-out: Cytotoxicity (%)) was 1.94%, the “p-Akt Thr308 / t-Akt” value ([2]; 100 μM) was 0.1089 and 0.0807 and 0.1359 and the “p-Akt Thr308 / t-Akt (Fold to ADP only)” value ([2]; 100 μM) was 0.3238 Fold to ADP only and 0.2400 Fold to ADP only and 0.4039 Fold to ADP only. For the same molecule, the “p-Akt Thr308 / t-Akt” value ([2]; 200 μM) was 0.0912 and 0.0481 and 0.0944, the “p-Akt Thr308 / t-Akt (Fold to ADP only)” value ([2]; 200 μM) was 0.2711 Fold to ADP only and 0.1429 Fold to ADP only and 0.2806 Fold to ADP only and the “p-Akt Thr308 / t-Akt” value ([2]; 400 μM) was 0.0712 and 0.0237 and 0.0830. For the same molecule, the “p-Akt Thr308 / t-Akt (Fold to ADP only)” value ([2]; 400 μM) was 0.2116 Fold to ADP only and 0.0703 Fold to ADP only and 0.2468 Fold to ADP only, the “p-Akt Thr308 / t-Akt” value ([2]; 800 μM) was 0.0216 and 0.0199 and 0.0438 and the “p-Akt Thr308 / t-Akt (Fold to ADP only)” value ([2]; 800 μM) was 0.0641 Fold to ADP only and 0.0591 Fold to ADP only and 0.1303 Fold to ADP only. For the same molecule, the “p-GSK3β / t-GSK3β” value ([3]; 100 μM) was 0.3609 and 0.3982 and 0.3384, the “p-GSK3β / t-GSK3β (Fold to ADP only)” value ([3]; 100 μM) was 0.5893 Fold to ADP only and 0.6502 Fold to ADP only and 0.5525 Fold to ADP only and the “p-GSK3β / t-GSK3β” value ([3]; 200 μM) was 0.4301 and 0.3431 and 0.4790. For the same molecule, the “p-GSK3β / t-GSK3β (Fold to ADP only)” value ([3]; 200 μM) was 0.7022 Fold to ADP only and 0.5603 Fold to ADP only and 0.7821 Fold to ADP only, the “p-GSK3β / t-GSK3β” value ([3]; 400 μM) was 0.3379 and 0.5076 and 0.5137 and the “p-GSK3β / t-GSK3β (Fold to ADP only)” value ([3]; 400 μM) was 0.5517 Fold to ADP only and 0.8288 Fold to ADP only and 0.8388 Fold to ADP only. For the same molecule, the “p-GSK3β / t-GSK3β” value ([3]; 800 μM) was 0.4062 and 0.4495 and 0.5157, the “p-GSK3β / t-GSK3β (Fold to ADP only)” value ([3]; 800 μM) was 0.6632 Fold to ADP only and 0.7339 Fold to ADP only and 0.8420 Fold to ADP only and the “influence on GSK3β phosphorylation” value ([3]; ADP-induced platelets) was “no influence”. For the same molecule, the “PI3Kp110β / GAPDH (Fold to Control)” value (PI3Kp110β; naringenin 200mg/kg) was 0.9111 and 0.9256 and 1.0697, the “PI3Kp110β / GAPDH (raw data)” value (PI3Kp110β; naringenin 200mg/kg) was 0.4465 and 0.4536 and 0.5241 and the “PI3Kp110β / GAPDH (Fold to Control)” value (PI3Kp110β; naringenin 400mg/kg) was 0.7818 and 0.8725 and 1.0518. For the same molecule, the “PI3Kp110β / GAPDH (raw data)” value (PI3Kp110β; naringenin 400mg/kg) was 0.3831 and 0.4275 and 0.5154, the “PI3Kp110β / GAPDH (Fold to Control)” value (PI3Kp110β; naringenin 800mg/kg) was 0.6930 and 0.8263 and 0.7645 and the “PI3Kp110β / GAPDH (raw data)” value (PI3Kp110β; naringenin 800mg/kg) was 0.3396 and 0.4049 and 0.3746. The “expression of PI3Kp110β in rat PRP ex vivo” value (PI3Kp110β; [6]) was “only modest changes”, the “p-Akt Ser473 / t-Akt (Fold to Control)” value ([4]; naringenin 200mg/kg) was 0.3581 and 0.2265 and 0.3338 and the “p-Akt Ser473 / t-Akt (raw data)” value ([4]; naringenin 200mg/kg) was 0.3980 and 0.2517 and 0.3710. The “p-Akt Ser473 / t-Akt (Fold to Control)” value ([4]; naringenin 400mg/kg) was 0.1353 and 0.0873 and 0.1300, the “p-Akt Ser473 / t-Akt (raw data)” value ([4]; naringenin 400mg/kg) was 0.1504 and 0.0970 and 0.1445 and the “p-Akt Ser473 / t-Akt (Fold to Control)” value ([4]; naringenin 800mg/kg) was 0.1415 and 0.0868 and 0.1240. The “p-Akt Ser473 / t-Akt (raw data)” value ([4]; naringenin 800mg/kg) was 0.1573 and 0.0965 and 0.1378, the “phosphorylation of Akt at Ser473 in rat PRP ex vivo” value [4, 6] was “significantly suppressed” and the “p-Akt Thr308 / t-Akt (Fold to Control)” value ([5]; naringenin 200mg/kg) was 0.5157 and 0.5526 and 0.5291. The “p-Akt Thr308 / t-Akt (raw data)” value ([5]; naringenin 200mg/kg) was 0.4340 and 0.4650 and 0.4452, the “p-Akt Thr308 / t-Akt (Fold to Control)” value ([5]; naringenin 400mg/kg) was 0.3273 and 0.3649 and 0.3395 and the “p-Akt Thr308 / t-Akt (raw data)” value ([5]; naringenin 400mg/kg) was 0.2755 and 0.3071 and 0.2857. The “p-Akt Thr308 / t-Akt (Fold to Control)” value ([5]; naringenin 800mg/kg) was 0.3636 and 0.3541 and 0.3985, the “p-Akt Thr308 / t-Akt (raw data)” value ([5]; naringenin 800mg/kg) was 0.3060 and 0.2979 and 0.3354 and the “phosphorylation of Akt at Thr308 in rat PRP ex vivo” value [5, 6] was “significantly suppressed”.
